Assay results: US20160199351A1, “COMPOSITIONS AND METHODS FOR INHIBITING FUNGAL INFECTIONS” (priority 2015, published 2016)
≈ marks a conversion by molar mass, not a printed value. Where two headings read alike, the source gives them in different places.

Experiments:
[1] = test system: Rhizopus oryzae; assay: MIC (Table 5); settings: Rhizopus arrhizus
[2] = test system: Aspergillus fumigatus; assay: Recovery of Aspergillus fumigatus mycelia growth after removal of antifungal drugs (MTT); type: cell-based; settings: treated 12 hours, drug removed, 24 hours more
[3] = test system: Lomentospora prolificans; assay: MIC, CLSI M38-A2 broth dilution (Table 1); type: cell-based; settings: isolate LP1, 48 hours
[4] = test system: Fusarium sp.; assay: MIC (Table 5); type: cell-based; settings: for MIC / MIC50: Fusarium; for MIC: read-out: MIC 100%
[5] = test system: C. krusei; assay: MIC against Candida species (Table 4); settings: Pichia kudriavzevii; for MIC: read-out: MIC 100%
[6] = test system: Rhizopus oryzae; assay: MIC, CLSI M38-A2 broth dilution (Table 1); type: cell-based
[7] = test system: Histoplasma capsulatum; type: cell-based; settings: 24-hour treatment
[8] = test system: C. guilliermondii; assay: MIC against Candida species (Table 4); settings: Meyerozyma guilliermondii
[9] = test system: P. variotii; assay: MIC (Table 5); settings: Paecilomyces variotii; for MIC: read-out: MIC 100%
[10] = test system: Coccidioides sp.; assay: microbe, parasite or virus in culture; type: cell-based
[11] = test system: Fusarium solani; assay: MIC, CLSI M38-A2 broth dilution (Table 1); type: cell-based; settings: isolate FS1, 48 hours
[12] = test system: Apophysomyces; assay: MIC (Table 5)
[13] = test system: Scedosporium sp.; assay: MIC (Table 5)
[14] = test system: Fusarium oxysporum; assay: MIC, CLSI M38-A2 broth dilution (Table 1); type: cell-based
[15] = test system: Aspergillus fumigatus; assay: Aspergillus fumigatus mycelia growth dose-response (MIC by linear regression); type: cell-based; settings: for MIC: Aspergillus fumigatus, FIG. 2A dose-response, linear regression

SMILES: NCC(=O)Nc1ccc(-n2nc(C(F)(F)F)cc2-c2ccc3c(ccc4ccccc43)c2)cc1 [AR-12, 2-amino-N-(4-(5-(phenanthren-2-yl)-3-(trifluoromethyl)-1H-pyrazol-1-yl)phenyl)acetamide]
- MIC50 ([1]; 24 h, isolate R-1, 24 hrs): 4 µg/mL (≈ 8.69 µM)
- MIC50 ([1]; 24 h, isolate R-2, 24 hrs): 4 µg/mL (≈ 8.69 µM)
- MIC50 ([1]; 24 h, isolate R-3, 24 hrs): 4 µg/mL (≈ 8.69 µM)
- MIC50 ([1]; 24 h, isolate R-4, 24 hrs): 4 µg/mL (≈ 8.69 µM)
- MIC50 ([1]; 24 h, isolate R-5, 24 hrs): 2 µg/mL (≈ 4.34 µM)
- MIC50 ([1]; 24 h, isolate R-6, 24 hrs): 4 µg/mL (≈ 8.69 µM)
- MIC ([1]; 24 h, read-out: MIC 100%, isolate R-1, 24 hrs): 4 µg/mL (≈ 8.69 µM)
- MIC ([1]; 24 h, read-out: MIC 100%, isolate R-2, 24 hrs): 4 µg/mL (≈ 8.69 µM)
- MIC ([1]; 24 h, read-out: MIC 100%, isolate R-3, 24 hrs): 4 µg/mL (≈ 8.69 µM)
- MIC ([1]; 24 h, read-out: MIC 100%, isolate R-4, 24 hrs): 4 µg/mL (≈ 8.69 µM)
- MIC ([1]; 24 h, read-out: MIC 100%, isolate R-5, 24 hrs): 4 µg/mL (≈ 8.69 µM)
- MIC ([1]; 24 h, read-out: MIC 100%, isolate R-6, 24 hrs): 4 µg/mL (≈ 8.69 µM)
- MIC50 ([1]; isolate R-1, 48/72 hrs): 4 µg/mL (≈ 8.69 µM)
- MIC50 ([1]; isolate R-2, 48/72 hrs): 8 µg/mL (≈ 17.4 µM)
- MIC50 ([1]; isolate R-3, 48/72 hrs): 4 µg/mL (≈ 8.69 µM)
- MIC50 ([1]; isolate R-4, 48/72 hrs): 4 µg/mL (≈ 8.69 µM)
- MIC50 ([1]; isolate R-5, 48/72 hrs): 4 µg/mL (≈ 8.69 µM)
- MIC50 ([1]; isolate R-6, 48/72 hrs): 4 µg/mL (≈ 8.69 µM)
- MIC ([1]; read-out: MIC 100%, isolate R-1, 48/72 hrs): 4 µg/mL (≈ 8.69 µM)
- MIC ([1]; read-out: MIC 100%, isolate R-2, 48/72 hrs): 8 µg/mL (≈ 17.4 µM)
- MIC ([1]; read-out: MIC 100%, isolate R-3, 48/72 hrs): 4 µg/mL (≈ 8.69 µM)
- MIC ([1]; read-out: MIC 100%, isolate R-4, 48/72 hrs): 4 µg/mL (≈ 8.69 µM)
- MIC ([1]; read-out: MIC 100%, isolate R-5, 48/72 hrs): 4 µg/mL (≈ 8.69 µM)
- MIC ([1]; read-out: MIC 100%, isolate R-6, 48/72 hrs): 4 µg/mL (≈ 8.69 µM)
- recovery of mycelia growth after removal of drug [2]: no viable Aspergillus fumigatus mycelia
- MIC 50% [3]: 2 gg/m1
- MIC 100% [3]: 2 gg/m1
- MIC ([4]; 24 h, isolate F-1, 24 hrs): 2 µg/mL (≈ 4.34 µM)
- MIC ([4]; 24 h, isolate F-2, 24 hrs): 2 µg/mL (≈ 4.34 µM)
- MIC ([4]; 24 h, isolate F-3, 24 hrs): 2 µg/mL (≈ 4.34 µM)
- MIC50 ([4]; isolate F-1, 48/72 hrs): 4 µg/mL (≈ 8.69 µM)
- MIC ([4]; isolate F-1, 48/72 hrs): 4 µg/mL (≈ 8.69 µM)
- MIC ([4]; isolate F-2, 48/72 hrs): 4 µg/mL (≈ 8.69 µM)
- MIC ([4]; isolate F-3, 48/72 hrs): 4 µg/mL (≈ 8.69 µM)
- MIC50 ([4]; isolate F-1, 24 hrs): 2 µg/mL (≈ 4.34 µM)
- MIC 50% ([4]; isolate F-2, 48/72 hrs): 4 µg/mL (≈ 8.69 µM)
- MIC 50% ([4]; isolate F-2, 24 hrs): 2 µg/mL (≈ 4.34 µM)
- MIC 50% ([4]; isolate F-3, 48/72 hrs): 4 µg/mL (≈ 8.69 µM)
- MIC 50% ([4]; isolate F-3, 24 hrs): 2 µg/mL (≈ 4.34 µM)
- MIC50 ([5]; 24 h): 2 µg/mL (≈ 4.34 µM)
- MIC ([5]; 24 h): 4 µg/mL (≈ 8.69 µM)
- MIC50 ([5]; 48 h): 4 µg/mL (≈ 8.69 µM)
- MIC ([5]; 48 h): 4 µg/mL (≈ 8.69 µM)
- MIC 50% ([6]; isolate RO1, 24 hours): 4 gg/m1
- MIC 100% ([6]; isolate RO1, 24 hours): 4 gg/m1
- MIC 50% ([6]; isolate RO2, 24 hours): 4 gg/m1
- MIC 100% ([6]; isolate RO2, 24 hours): 4 gg/m1
- MIC 50% ([6]; isolate RO3, 24 hours): 4 gg/m1
- MIC 100% ([6]; isolate RO3, 24 hours): 4 gg/m1
- reduction of fungal viability ([7]; then growth in absence of drug): about 1000 fold
- viability staining of yeasts ([7]; ethidium bromide / fluorescein staining): loss of yeast viability
- MIC50 ([8]; 24 h, isolate Cgu-1, 24 hrs): 2 µg/mL (≈ 4.34 µM)
- MIC50 ([8]; 24 h, isolate Cgu-2, 24 hrs): 2 µg/mL (≈ 4.34 µM)
- MIC50 ([8]; 24 h, isolate Cgu-3, 24 hrs): 2 µg/mL (≈ 4.34 µM)
- MIC50 ([8]; 24 h, isolate Cgu-4, 24 hrs): 2 µg/mL (≈ 4.34 µM)
- MIC50 ([8]; 24 h, isolate Cgu-5, 24 hrs): 4 µg/mL (≈ 8.69 µM)
- MIC50 ([8]; 24 h, isolate Cgu-6, 24 hrs): 4 µg/mL (≈ 8.69 µM)
- MIC50 ([8]; 24 h, isolate Cgu-7, 24 hrs): 2 µg/mL (≈ 4.34 µM)
- MIC ([8]; 24 h, read-out: MIC 100%, isolate Cgu-1, 24 hrs): 2 µg/mL (≈ 4.34 µM)
- MIC ([8]; 24 h, read-out: MIC 100%, isolate Cgu-2, 24 hrs): 2 µg/mL (≈ 4.34 µM)
- MIC ([8]; 24 h, read-out: MIC 100%, isolate Cgu-3, 24 hrs): 2 µg/mL (≈ 4.34 µM)
- MIC ([8]; 24 h, read-out: MIC 100%, isolate Cgu-4, 24 hrs): 2 µg/mL (≈ 4.34 µM)
- MIC ([8]; 24 h, read-out: MIC 100%, isolate Cgu-5, 24 hrs): 4 µg/mL (≈ 8.69 µM)
- MIC ([8]; 24 h, read-out: MIC 100%, isolate Cgu-6, 24 hrs): 4 µg/mL (≈ 8.69 µM)
- MIC ([8]; 24 h, read-out: MIC 100%, isolate Cgu-7, 24 hrs): 2 µg/mL (≈ 4.34 µM)
- MIC50 ([8]; 48 h, isolate Cgu-1, 48 hrs): 4 µg/mL (≈ 8.69 µM)
- MIC50 ([8]; 48 h, isolate Cgu-2, 48 hrs): 2 µg/mL (≈ 4.34 µM)
- MIC50 ([8]; 48 h, isolate Cgu-3, 48 hrs): 2 µg/mL (≈ 4.34 µM)
- MIC50 ([8]; 48 h, isolate Cgu-4, 48 hrs): 2 µg/mL (≈ 4.34 µM)
- MIC50 ([8]; 48 h, isolate Cgu-5, 48 hrs): 4 µg/mL (≈ 8.69 µM)
- MIC50 ([8]; 48 h, isolate Cgu-6, 48 hrs): 4 µg/mL (≈ 8.69 µM)
- MIC50 ([8]; 48 h, isolate Cgu-7, 48 hrs): 4 µg/mL (≈ 8.69 µM)
- MIC ([8]; 48 h, read-out: MIC 100%, isolate Cgu-1, 48 hrs): 4 µg/mL (≈ 8.69 µM)
- MIC ([8]; 48 h, read-out: MIC 100%, isolate Cgu-2, 48 hrs): 4 µg/mL (≈ 8.69 µM)
- MIC ([8]; 48 h, read-out: MIC 100%, isolate Cgu-3, 48 hrs): 4 µg/mL (≈ 8.69 µM)
- MIC ([8]; 48 h, read-out: MIC 100%, isolate Cgu-4, 48 hrs): 2 µg/mL (≈ 4.34 µM)
- MIC ([8]; 48 h, read-out: MIC 100%, isolate Cgu-5, 48 hrs): 4 µg/mL (≈ 8.69 µM)
- MIC ([8]; 48 h, read-out: MIC 100%, isolate Cgu-6, 48 hrs): 4 µg/mL (≈ 8.69 µM)
- MIC ([8]; 48 h, read-out: MIC 100%, isolate Cgu-7, 48 hrs): 4 µg/mL (≈ 8.69 µM)
- MIC50 [9]: 4 µg/mL (≈ 8.69 µM)
- MIC50 ([9]; 24 h): 2 µg/mL (≈ 4.34 µM)
- MIC ([9]; 24 h): 4 µg/mL (≈ 8.69 µM)
- MIC [9]: 4 µg/mL (≈ 8.69 µM)
- MIC50 ([10]; Coccidioides): 2 µg/mL (≈ 4.34 µM)
- MIC ([10]; Coccidioides, read-out: MIC 100%, isolate COCCI-1, 72/192 hrs): 4 µg/mL (≈ 8.69 µM)
- MIC ([10]; Coccidioides, read-out: MIC 100%, isolate COCCI-2, 72/192 hrs): 8 µg/mL (≈ 17.4 µM)
- MIC ([10]; Coccidioides, read-out: MIC 100%, isolate COCCI-3, 72/192 hrs): 4 µg/mL (≈ 8.69 µM)
- MIC 50% ([10]; isolate COCCI-1, 72/192 hrs): 2 µg/mL (≈ 4.34 µM)
- MIC 50% ([10]; isolate COCCI-3, 72/192 hrs): 2 µg/mL (≈ 4.34 µM)
- MIC 50% [11]: 4 gg/m1
- MIC 100% [11]: 4 gg/m1
- MIC50 [12]: 4 µg/mL (≈ 8.69 µM)
- MIC50 ([12]; 24 h): 2 µg/mL (≈ 4.34 µM)
- MIC ([12]; 24 h, read-out: MIC 100%, isolate AE-1, 24 hrs): 4 µg/mL (≈ 8.69 µM)
- MIC ([12]; 24 h, read-out: MIC 100%, isolate AE-2, 24 hrs): 4 µg/mL (≈ 8.69 µM)
- MIC 50% ([12]; isolate AE-2, 48/72 hrs): 4 µg/mL (≈ 8.69 µM)
- MIC 50% ([12]; isolate AE-2, 24 hrs): 2 µg/mL (≈ 4.34 µM)
- MIC ([12]; read-out: MIC 100%, isolate AE-1, 48/72 hrs): 4 µg/mL (≈ 8.69 µM)
- MIC ([12]; read-out: MIC 100%, isolate AE-2, 48/72 hrs): 4 µg/mL (≈ 8.69 µM)
- MIC50 ([13]; 24 h, isolate S-2, 24 hrs): 2 µg/mL (≈ 4.34 µM)
- MIC ([13]; 24 h, read-out: MIC 100%, isolate S-2, 24 hrs): 2 µg/mL (≈ 4.34 µM)
- MIC50 ([13]; isolate S-1, 48/72 hrs): 2 µg/mL (≈ 4.34 µM)
- MIC50 ([13]; isolate S-2, 48/72 hrs): 4 µg/mL (≈ 8.69 µM)
- MIC ([13]; read-out: MIC 100%, isolate S-1, 48/72 hrs): 4 µg/mL (≈ 8.69 µM)
- MIC ([13]; read-out: MIC 100%, isolate S-2, 48/72 hrs): 4 µg/mL (≈ 8.69 µM)
- MIC 50% ([14]; isolate FO1, 48 hours): 4 gg/m1
- MIC 100% ([14]; isolate FO1, 48 hours): 4 gg/m1
- MIC 50% ([14]; isolate FO2, 48 hours): 4 gg/m1
- MIC 100% ([14]; isolate FO2, 48 hours): 4 gg/m1
- MIC ([15]; read-out: MIC, concentration resulting in 50% inhibition of mycelia growth): 3.1 µM (≈ 1.43 µg/mL)
- MIC ([15]; read-out: MIC, concentration resulting in 90% inhibition of mycelia growth): 8.6 µM (≈ 3.96 µg/mL)
- concentration that effectively prevents growth ([15]; stated for all three fungi): 8 to 40 µM
